Assay results published in patent publication US8378104B2 (OSI Pharmaceuticals, LLC, priority 2010, dated 2013).
Where a name gives a salt, the structure may show the parent alone.

Tests used:
[1] = target: T1, TAK1-TAB1 fusion protein (Homo sapiens, UniProt O43318); assay: TAK1 biochemical assay (AlphaScreen, GST-MAP2K7 substrate); details: TAK1-TAB1 fusion protein, GST-MAP2K7 substrate; read-out: mean TAK1 IC50 (Col. A)
T1 construct: purchased Carna
T1 sequence (O43318 with tags, fused parts or gaps limits assumed): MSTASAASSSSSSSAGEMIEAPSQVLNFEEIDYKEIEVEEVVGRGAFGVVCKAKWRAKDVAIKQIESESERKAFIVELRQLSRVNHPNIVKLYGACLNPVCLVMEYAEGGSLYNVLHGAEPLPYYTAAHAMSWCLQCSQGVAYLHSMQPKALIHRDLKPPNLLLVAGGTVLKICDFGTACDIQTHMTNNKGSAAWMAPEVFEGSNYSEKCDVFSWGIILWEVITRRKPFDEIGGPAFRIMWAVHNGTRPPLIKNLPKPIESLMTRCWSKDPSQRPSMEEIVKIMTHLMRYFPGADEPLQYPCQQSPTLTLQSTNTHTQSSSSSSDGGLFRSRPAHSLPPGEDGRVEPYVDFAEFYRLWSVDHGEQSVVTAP

[2] = system: pJNK in HCT-116 cells; assay: Phospho-JNK (Thr183/Tyr185) Meso Scale ELISA assay, TNFα-stimulated HCT-116 cells; format: cell-based; details: Homo sapiens, read-out: mean HCT-116 pJNK ELISA IC50 (Col. B)
Method in brief: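 Meso Scale ELISA read of phospho-JNK (Thr183/Tyr185) in lysed HCT-116 cells. Cells were serum-reduced to 1% FCS for 2 hours, exposed to test drug for 4 hrs at 37° C, then given 10 ng/mL TNFα (final) for 10 minutes before lysis.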

[3] = system: p-p38 in HCT-116 cells; assay: Phospho-p38 Meso Scale ELISA assay, TNFα-stimulated HCT-116 cells; format: cell-based; details: Homo sapiens, read-out: mean HCT-116 p-p38 ELISA IC50 (Col. C)
Method in brief: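 Phospho-p38 measured by Meso Scale ELISA on diluted lysates, captured overnight at 4° C. Before lysis, HCT-116 cells were serum-reduced (1% FCS, 2 h), treated with compounds 4 h at 37° C and stimulated 10 min with 10 ng/mL TNFα final.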

| Compound | IC50 [1] [nM] | IC50 [2] [nM] | IC50 [3] [nM] |
| --- | --- | --- | --- |
| COc1cc(-c2cc3c(-c4cnn(C5CCN(C(C)=O)CC5)c4)cnc(N)c3o2)ccc1O [Example 131, 1-(4-{4-[7-amino-2-(4-hydroxy-3-methoxyphenyl)furo[2,3-c]pyridin-4-yl]-1H-pyrazol-1-yl}piperidin-1-yl)ethanone] | 100 to 1000 | 100 to 1000 | 1000 to 10000 |
| CC(=O)N1CCC(n2cc(-c3cnc(N)c4oc(-c5ccc6c(c5)OCO6)cc34)cn2)CC1 [Example 117, 1-(4-{4-[7-amino-2-(1,3-benzodioxol-5-yl)furo[2,3-c]pyridin-4-yl]-1H-pyrazol-1-yl}piperidin-1-yl)ethanone] | 1000 to 10000 | 1000 to 10000 | 1000 to 10000 |
| CC(=O)N1CCC(n2cc(-c3cnc(N)c4oc(-c5c[nH]c6cnccc56)cc34)cn2)CC1 [Example 86, 1-(4-{4-[7-amino-2-(1H-pyrrolo[2,3-c]pyridin-3-yl)furo[2,3-c]pyridin-4-yl]-1H-pyrazol-1-yl}piperidin-1-yl)ethanone] | < 100 | 1000 to 10000 | 1000 to 10000 |
| COCC(=O)N1CCC(n2cc(-c3cnc(N)c4oc(-c5cccc6cnccc56)cc34)cn2)CC1 [Example 50, 1-(4-{4-[7-amino-2-(isoquinolin-5-yl)furo[2,3-c]pyridin-4-yl]-1H-pyrazol-1-yl}piperidin-1-yl)-2-methoxyethanone] | 100 to 1000 | 100 to 1000 | 100 to 1000 |
| Nc1ncc(-c2cnn(C3CCN(CC(F)(F)F)CC3)c2)c2cc(-c3cccc4cnccc34)oc12 [Example 84, 2-(isoquinolin-5-yl)-4-{1-[1-(2,2,2-trifluoroethyl)piperidin-4-yl]-1H-pyrazol-4-yl}furo[2,3-c]pyridin-7-amine] | 1000 to 10000 | 100 to 1000 | 100 to 1000 |
| CC(=O)N1CCC(n2cc(-c3cnc(N)c4oc(-c5ccc6c(cnn6C)c5)cc34)cn2)CC1 [Example 146, 1-(4-{4-[7-amino-2-(1-methyl-1H-indazol-5-yl)furo[2,3-c]pyridin-4-yl]-1H-pyrazol-1-yl}piperidin-1-yl)ethanone] | 1000 to 10000 | 100 to 1000 | 1000 to 10000 |
| CC(=O)N1CCC(n2cc(-c3cnc(N)c4oc(-c5cccc(O)c5)cc34)cn2)CC1 [Example 132, 1-(4-{4-[7-amino-2-(3-hydroxyphenyl)furo[2,3-c]pyridin-4-yl]-1H-pyrazol-1-yl}piperidin-1-yl)ethanone] | < 100 | 100 to 1000 | 100 to 1000 |
| Nc1ncc(-c2cnn(C3CCOCC3)c2)c2cc(-c3cccc4cnccc34)oc12 [Example 74, 2-(isoquinolin-5-yl)-4-[1-(tetrahydro-2H-pyran-4-yl)-1H-pyrazol-4-yl]furo[2,3-c]pyridin-7-amine] | 100 to 1000 | 100 to 1000 | 1000 to 10000 |
| CC(=O)N1CCC(n2cc(-c3cnc(N)c4oc(-c5ccc(O)c(F)c5)cc34)cn2)CC1 [Example 123, 1-(4-{4-[7-amino-2-(3-fluoro-4-hydroxyphenyl)furo[2,3-c]pyridin-4-yl]-1H-pyrazol-1-yl}piperidin-1-yl)ethanone] | 100 to 1000 | 1000 to 10000 | 1000 to 10000 |
| CC(=O)N1CCC(n2cc(-c3cnc(N)c4oc(-c5ccc6c(c5)CCO6)cc34)cn2)CC1 [Example 108, 1-(4-{4-[7-amino-2-(2,3-dihydro-1-benzofuran-5-yl)furo[2,3-c]pyridin-4-yl]-1H-pyrazol-1-yl}piperidin-1-yl)ethanone] | 100 to 1000 | 100 to 1000 | < 100 |
| CC(=O)N1CCC(n2cc(-c3cnc(N)c4oc(-c5ccc6c(c5)CNC6=O)cc34)cn2)CC1 [Example 98, 5-{4-[1-(1-acetylpiperidin-4-yl)-1H-pyrazol-4-yl]-7-aminofuro[2,3-c]pyridin-2-yl}-2,3-dihydro-1H-isoindol-1-one] | > 10000 | > 10000 | > 10000 |
| CC(=O)N1CCC(n2cc(-c3cnc(N)c4oc(C5=CCCCC5)cc34)cn2)CC1 [Example 142, 1-(4-{4-[7-amino-2-(cyclohex-1-en-1-yl)furo[2,3-c]pyridin-4-yl]-1H-pyrazol-1-yl}piperidin-1-yl)ethanone] | 100 to 1000 | 100 to 1000 | 1000 to 10000 |
| C[C@]1(O)CC[C@@H](n2cc(-c3cnc(N)c4oc(-c5cccc6cnccc56)cc34)cn2)CC1 [Example 76, cis-4-{4-[7-amino-2-(isoquinolin-5-yl)furo[2,3-c]pyridin-4-yl]-1H-pyrazol-1-yl}-1-methylcyclohexanol] | 100 to 1000 | 100 to 1000 | 100 to 1000 |
| CC(=O)N1CCC(n2cc(-c3cnc(N)c4oc(-c5cn[nH]c5)cc34)cn2)CC1 [Example 115, 1-(4-{4-[7-amino-2-(1H-pyrazol-4-yl)furo[2,3-c]pyridin-4-yl]-1H-pyrazol-1-yl}piperidin-1-yl)ethanone] | 100 to 1000 | 1000 to 10000 | > 10000 |

Now from value to molecule:

| IC50 [1] [nM] | IC50 [2] [nM] | IC50 [3] [nM] | Compound |
| --- | --- | --- | --- |
| < 100 | < 100 | < 100 | Nc1ncc(-c2cnn([C@H]3CC[C@H](O)CC3)c2)c2cc(-c3csc4cnccc34)oc12 [Example 233, trans-4-{4-[7-amino-2-(thieno[2,3-c]pyridin-3-yl)furo[2,3-c]pyridin-4-yl]-1H-pyrazol-1-yl}cyclohexanol] |
| > 10000 | 1000 to 10000 | 1000 to 10000 | Cc1nn(CC(O)CO)c(C)c1-c1cnc(N)c2oc(-c3cccc4cnccc34)cc12 (stereo not drawn) [Example 400, 3-{4-[7-amino-2-(isoquinolin-5-yl)furo[2,3-c]pyridin-4-yl]-3,5-dimethyl-1H-pyrazol-1-yl}propane-1,2-diol] |
| < 100 | 1000 to 10000 | 100 to 1000 | Nc1ncc(-c2cnn(C3CCNCC3)c2)c2cc(-c3cccc4cnsc34)oc12 [Example 323, 2-benzo[d]isothiazol-7-yl-4-(1-piperidin-4-yl-1H-pyrazol-4-yl)-furo[2,3-c]pyridin-7-ylamine] |
| 1000 to 10000 | 100 to 1000 | 1000 to 10000 | CC(=O)N1CCC(n2cc(-c3cnc(N)c4oc(-c5ccccc5)cc34)cn2)CC1 [Example 149, 1-{4-[4-(7-amino-2-phenylfuro[2,3-c]pyridin-4-yl)-1H-pyrazol-1-yl]piperidin-1-yl}ethanone] |
| 100 to 1000 | 1000 to 10000 | 1000 to 10000 | CC(=O)N1CCC(n2cc(-c3cnc(N)c4oc(-c5ccsc5)cc34)cn2)CC1 [Example 174, 1-(4-{4-[7-amino-2-(thiophen-3-yl)furo[2,3-c]pyridin-4-yl]-1H-pyrazol-1-yl}piperidin-1-yl)ethanone] |
| 100 to 1000 | < 100 | 100 to 1000 | Nc1ncc(-c2cnn([C@H]3CC[C@H](O)CC3)c2)c2cc(-c3c(F)ccc4cnsc34)oc12 [Example 240, trans-4-{4-[7-amino-2-(6-fluoro-1,2-benzothiazol-7-yl)furo[2,3-c]pyridin-4-yl]-1H-pyrazol-1-yl}cyclohexanol diformate salt] |
| 100 to 1000 | 100 to 1000 | 1000 to 10000 | COc1nn([C@H]2CC[C@@H](O)CC2)cc1-c1cnc(N)c2oc(-c3csc4cnccc34)cc12 [Example 303, 4-[4-(7-amino-2-thieno[2,3-c]pyridin-3-yl-furo[2,3-c]pyridin-4-yl)-3-methoxy-pyrazol-1-yl]-cyclohexanol] |
| < 100 | 100 to 1000 | 100 to 1000 | CC(=O)N1CCC(n2cc(-c3cnc(N)c4oc(-c5cccc([N+](=O)[O-])c5C)cc34)cn2)CC1 [Example 218, 1-(4-{4-[7-amino-2-(2-methyl-3-nitrophenyl)furo[2,3-c]pyridin-4-yl]-1H-pyrazol-1-yl}piperidin-1-yl)ethanone] |
| < 100 | < 100 | < 100 | CC(=O)N1CCC(n2cc(-c3cnc(N)c4oc(-c5cccc6cnsc56)cc34)cn2)CC1 [Example 226, 1-(4-{4-[7-amino-2-(1,2-benzothiazol-7-yl)furo[2,3-c]pyridin-4-yl]-1H-pyrazol-1-yl}piperidin-1-yl)ethanone] |
| 100 to 1000 | 1000 to 10000 | 1000 to 10000 | CC(=O)N1CCC(n2cc(-c3cnc(N)c4oc(-c5ccc6c(c5)CCC(=O)N6)cc34)cn2)CC1 [Example 154, 6-{4-[1-(1-acetylpiperidin-4-yl)-1H-pyrazol-4-yl]-7-aminofuro[2,3-c]pyridin-2-yl}-3,4-dihydroquinolin-2(1H)-one] |
| < 100 | 100 to 1000 | 100 to 1000 | Nc1ncc(-c2cnn(C3CC4(C3)OCCO4)c2)c2cc(-c3csc4cnccc34)oc12 [Example 291, 4-[1-(5,8-dioxa-spiro[3.4]oct-2-yl)-1H-pyrazol-4-yl]-2-thieno[2,3-c]pyridin-3-yl-furo[2,3-c]pyridin-7-ylamine] |
